From patent US8420819B2, “Process for optimizing the particle size of an active pharmaceutical ingredient by crystallization” (Boehringer Ingelheim International GmbH, priority 2009, dated 2013) come the findings set out here.

The nature of data set [1]: Powder properties (flowability, bulk density) of crystallized particles. It is filed as physicochemical. The following applies: MEK/heptane process compared to particles produced from other solvent systems.
Data set [2] can be described thus: Particle size of co-crystal batches, measured by Sympatec laser light diffraction. The data set is classed as physicochemical. The settings on record: for Particle Size D10: scale-up batches from MEK/heptane crystallization, Sympatec laser light diffraction.

Turning to `CCS(=O)(=O)c1cc2cc(C[C@](O)(CC(C)(C)c3ccc(F)cc3C(N)=O)C(F)(F)F)[nH]c2cn1.O=P(O)(O)O` [2-[(3R)-3-(5-ethanesulfonyl-1H-pyrrolo[2,3-c]pyridin-2-ylmethyl)-4,4,4-trifluoro-3-hydroxy-1,1-dimethylbutyl]-5-fluorobenzamide phosphoric acid co-crystal], the “powder properties (flowability, bulk density)” value in data set [1] is “excellent powder properties”. Also, the D90 was less than 10 μm in data set [2] (MEK/heptane, initial concentration approximately 0.11-0.14 g/mL, seeded, high supersaturation); 25-30 μm in data set [2] (approximately 1.0 wt % water in the solution (between about 0.7% and 1.2%) (FIG. 2)); 6 μm in data set [2] (crystallization with 0.1 wt % water (FIG. 1)); 26 μm in data set [2] (crystallization with 1.1 wt % water (FIG. 2)); 50 μm in data set [2] (crystallization with 2.0 wt % water (FIG. 3)); 5-10 μm in data set [2] (crystallization with <0.5 wt % water in the solution (FIG. 1)). Besides, the “particle size of the product, D90” value in data set [2] (crystallization as part of the synthesis, from acetic acid or anisole solvate, 50.0 g, KF <0.2 wt %) is “about 7 μm”; in data set [2] (standalone re-crystallization process, 50.0 g co-crystal, KF ≦0.2 wt %), “about 7 μm”. Besides, the “Particle Size D10” value in data set [2] (listed as Kilo lab batch, 1.8 kg, from acetic acid solvate) was 1.19 μm; in data set [2] (listed as Lab batch 1 from acetic acid solvate), 1.29 μm; in data set [2] (listed as Lab batch 2 from acetic acid solvate) it was 1.28 μm; in data set [2] (listed as Lab batch 3 from acetic acid solvate), 1.54 μm; in data set [2] (listed as Lab batch from new synthesis from acetic acid solvate) it was 1.17 μm; in data set [2] (listed as Lab batch, from anisole solvate), 1.31 μm. The “Particle Size D10” value in data set [2] (listed as Pilot plant batch A, 11 kg, from anisole solvate) was 1.61 μm; in data set [2] (listed as Pilot plant batch B, 22 kg, from anisole solvate), 1.67 μm; in data set [2] (listed as Pilot plant batch, 9 kg, from acetic acid solvate), 1.26 μm.
